Where a name gives a salt, the structure may show the parent alone. Bounds are passed on as bounds.

T1 sequence (P14842 whole entry): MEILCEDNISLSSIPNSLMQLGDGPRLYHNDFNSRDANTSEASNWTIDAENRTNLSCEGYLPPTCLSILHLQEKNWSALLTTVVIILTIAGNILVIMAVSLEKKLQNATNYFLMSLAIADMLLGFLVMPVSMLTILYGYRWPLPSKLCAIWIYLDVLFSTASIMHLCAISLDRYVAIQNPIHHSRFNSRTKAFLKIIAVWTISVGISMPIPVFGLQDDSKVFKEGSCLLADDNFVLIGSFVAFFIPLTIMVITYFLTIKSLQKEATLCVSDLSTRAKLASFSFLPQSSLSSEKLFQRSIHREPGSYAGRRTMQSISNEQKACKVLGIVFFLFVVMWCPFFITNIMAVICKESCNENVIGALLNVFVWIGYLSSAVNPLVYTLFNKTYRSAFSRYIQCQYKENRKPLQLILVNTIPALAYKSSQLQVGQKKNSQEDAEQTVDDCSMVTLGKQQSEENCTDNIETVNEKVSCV

The assay has as its target T1, S2-receptor (Rattus norvegicus, UniProt P14842).
T1 construct: Caudal arteries from fasted male rats; from tissue; host or cells: rat caudal artery, helical strips
As to the kind of experiment: antagonistic activity on the effect of serotonin on the caudal artery of the rat (caudal artery test). The conditions noted are these: rat caudal artery strips; serotonin 40 ng/ml; 5 minutes after adding the drug; read-out: ED50 (minimal concentration which reduces the amplitude of the serotonin-induced contraction to at least 50% of its normal value) (converted). The procedure:
ANTAGONISTIC ACTIVITY ON THE EFFECT OF SEROTONIN ON THE CAUDAL ARTERY OF THE RAT
Caudal arteries from fasted male rats (210-235 g) were used in the test. […] Submaximal contractions of the arterial strips were produced by adding single doses of serotonin (40 ng/ml) to the organ bath for 2 minutes with each time an interval of 10 minutes. The amplitude of the contraction was measured before and 5 minutes after adding the drug. After washing out, the agonist was added again three times in order to see whether the contraction was restored and normalized. […] In this connection the ED50 -values are the minimal concentrations of the concerned drugs which reduce the amplitude of the contraction to at least 50% of its normal value.
For the compound `Cc1cccc(C(=C2CCN(CCc3c(C)nc4n(c3=O)CCCS4)CC2)c2ccc(F)cc2)c1` [Compound 121], the IC50 is 2.65 pM.
In the case of `Cc1nc2sccn2c(=O)c1CCN1CCC(=C(c2ccc(Cl)cc2)c2ccc(Cl)cc2)CC1` [Compound 48] it was 4.31 pM; in that of `Cc1ccc(C(=C2CCN(CCc3c(C)nc4sccn4c3=O)CC2)c2ccc(F)cc2)cc1` [Compound 49], 0.676 pM; in that of `Cc1ccc(C(=C2CCN(CCc3c(C)nc4n(c3=O)CCS4)CC2)c2ccc(F)cc2)cc1` [Compound 47], 0.673 pM.
For the compound `Cc1nc2n(c(=O)c1CCN1CCC(=C(c3ccc(O)cc3)c3ccc(F)cc3)CC1)CCCC2` [Compound 39], the IC50 was 1.33 pM.
In the case of `Cc1nc2scc(C)n2c(=O)c1CCN1CCC(=C(c2ccc(F)cc2)c2cccc(F)c2)CC1` [Compound 27] it was 0.651 pM; in that of `Cc1cccc(C(=C2CCN(CCc3c(C)nc4n(c3=O)CCCS4)CC2)c2ccc(F)cc2)c1` [Compound 123], 0.654 pM.
`Cc1ccc(C(=C2CCN(CCc3c(C)nc4sccn4c3=O)CC2)c2ccccc2)cc1` [Compound 66]: the IC50 was 0.158 pM.
Regarding `Cc1nc2n(c(=O)c1CCN1CCC(=C(c3ccccc3)c3ccc(F)cc3)CC1)CCS2` [Compound 116], the IC50 is 2.82 pM.
The value for `Cc1nc2n(c(=O)c1CCN1CCC(=C(c3ccc(F)cc3)c3ccc(Br)cc3)CC1)CCS2` [Compound 44] was 1.04 pM.
In the case of `Cc1nc2n(c(=O)c1CCN1CCC(=C(c3ccccc3)c3ccc(F)cc3)CC1)CCCC2` [Compound 137, 3-[2-[4-[(4-fluorophenyl)phenylmethylene]-1-piperidinyl]ethyl]-6,7,8,9-tetrahydro-2-methyl-4H-pyrido[1,2-a]pyrimidin-4-one dihydrochloride] it was 2.45 pM; in that of `Cc1nc2n(c(=O)c1CCN1CCC(=C(c3ccccc3)c3ccc(F)cc3)CC1)CCCS2` [Compound 115], 2.73 pM.
The value for `Cc1ccc(C(=C2CCN(CCc3c(C)nc4n(c3=O)CCCS4)CC2)c2ccccc2)cc1` [Compound 128] was 0.678 pM.
For `Cc1nc2ccccn2c(=O)c1CCN1CCC(=C(c2ccc(F)cc2)c2cccc(Cl)c2)CC1` [Compound 16], the IC50 was 1.29 pM.
In the case of `Cc1ccccc1C(=C1CCN(CCc2c(C)nc3scc(C)n3c2=O)CC1)c1ccccc1` [Compound 81] it was below 5.32 pM; in that of `Cc1nc2n(c(=O)c1CCN1CCC(=C(c3ccc(F)cc3)c3cccnc3)CC1)CCCC2` [Compound 54], 6.11 pM; in that of `Cc1nc2n(c(=O)c1CCN1CCC(=C(c3ccc(F)cc3)c3cccc(Cl)c3)CC1)CCS2` [Compound 5], 0.323 pM.
The value for `Cc1nc2scc(C)n2c(=O)c1CCN1CCC(=C(c2ccc(F)cc2)c2ccc(Br)cc2)CC1` [Compound 32] was 2.35 pM; that for `Cc1nc2ccccn2c(=O)c1CCN1CCC(=C(c2ccc(F)cc2)c2ccc(Cl)cc2)CC1` [Compound 13] was 2.56 pM; that for `Cc1nc2n(c(=O)c1CCN1CCC(=C(c3ccc(F)cc3)c3ccc(Br)cc3)CC1)CCCS2` [Compound 33] was 5.05 pM.
In the case of `Cc1cccc(C(=C2CCN(CCc3c(C)nc4ccccn4c3=O)CC2)c2ccc(F)cc2)c1` [Compound 15] it was 1.35 pM.
On to `Cc1nc2n(c(=O)c1CCN1CCC(=C(c3ccc(Cl)cc3)c3ccc(Cl)cc3)CC1)CCS2` [Compound 110, 6-[2-[4-[bis(4-chlorophenyl)methylene]-1-piperidinyl]ethyl]-2,3-dihydro-7-methyl-5H-thiazolo[3,2-a]pyrimidin-5-one], for which the IC50 was 2.54 pM.
In the case of `Cc1nc2ccccn2c(=O)c1CCN1CCC(=C(c2ccc(F)cc2)c2cccc(F)c2)CC1` [Compound 36] it was 0.679 pM; in that of `Cc1nc2n(c(=O)c1CCN1CCC(=C(c3ccc(Cl)cc3)c3ccc(Cl)cc3)CC1)CCCC2` [Compound 52], 1.4 pM; in that of `Cc1nc2ccccn2c(=O)c1CCN1CCC(=C(c2ccc(F)cc2)c2ccc(Br)cc2)CC1` [Compound 45], 2.44 pM.
The value for `COc1ccc(C(=C2CCN(CCc3c(C)nc4sccn4c3=O)CC2)c2ccc(F)cc2)cc1` [Compound 144, 6-[2-[4-[(4-fluorophenyl)(4-methoxyphenyl)methylene]-1-piperidinyl]ethyl]-7-methyl-5H-thiazolo[3,2-a]pyrimidin-5-one monohydrochloride] was 1.06 pM; that for `Cc1nc2sccn2c(=O)c1CCN1CCC(=C(c2ccc(F)cc2)c2cccc(C(F)(F)F)c2)CC1` [Compound 21] was 1.19 pM.
Take `Cc1ccc(C(=C2CCN(CCc3c(C)nc4n(c3=O)CCCS4)CC2)c2ccc(C)cc2)cc1` [Compound 108, 7-[2-[4-[bis(4-methylphenyl)methylene]-1-piperidinyl]ethyl]-3,4-dihydro-8-methyl-2H,6H-pyrimido[2,1-b][1,3]thiazin-6-one]: the IC50 is 2.68 pM.
The value for `Cc1nc2sccn2c(=O)c1CCN1CCC(=C(c2ccc(F)cc2)c2ccc(Cl)cc2)CC1` [Compound 9] was below 1.28 pM; that for `Cc1nc2sccn2c(=O)c1CCN1CCC(=C(c2ccc(F)cc2)c2ccc(Br)cc2)CC1` [Compound 34] was 1.04 pM; that for `Cc1nc2n(c(=O)c1CCN1CCC(=C(c3ccccc3)c3ccc(O)cc3)CC1)CCS2` [Compound 73] was 5.44 pM.
In the case of `Cc1ccc(C(=C2CCN(CCc3c(C)nc4ccccn4c3=O)CC2)c2ccc(C)cc2)cc1` [Compound 43] it was 1.53 pM; in that of `Cc1nc2n(c(=O)c1CCN1CCC(=C(c3ccccc3)c3cccc(C(F)(F)F)c3)CC1)CCS2` [Compound 90], 1.39 pM; in that of `Cc1nc2n(c(=O)c1CCN1CCC(=C(c3ccc(F)cc3)c3ccc(F)cc3)CC1)CCCC2` [Compound 3], 1.18 pM.
The value for `Cc1nc2ccccn2c(=O)c1CCN1CCC(=C(c2ccccc2)c2cccc(C(F)(F)F)c2)CC1` [Compound 87] was below 4.96 pM; that for `Cc1nc2n(c(=O)c1CCN1CCC(=C(c3ccccc3)c3ccccc3)CC1)CCS2` [Compound 107, 6-[2-[4-(diphenylmethylene)-1-piperidinyl]ethyl]-2,3-dihydro-7-methyl-5H-thiazolo[3,2-a]pyrimidin-5-one dihydrochloride] was 1.08 pM.
With `Cc1cccc(C(=C2CCN(CCc3c(C)nc4scc(C)n4c3=O)CC2)c2ccccc2)c1` [Compound 68], the IC50 was 0.681 pM.
In the case of `Cc1nc2n(c(=O)c1CCN1CCC(=C(c3ccc(F)cc3)c3cccc(F)c3)CC1)CCCC2` [Compound 30] it was 1.18 pM.
The value for `Cc1nc2n(c(=O)c1CCN1CCC(=C(c3ccccc3)c3ccccc3)CC1)CCCS2` [Compound 104, 7-[2-[4-(diphenylmethylene)-1-piperidinyl]ethyl]-3,4-dihydro-8-methyl-2H,6H-pyrimido[2,1-b][1,3]-thiazin-6-one] was 0.699 pM.
For `Cc1cc(C)n2c(=O)c(CCN3CCC(=C(c4ccc(F)cc4)c4ccc(F)cc4)CC3)c(C)nc2c1` [Compound 55], the IC50 is 2.6 pM.
The value for `Cc1cccc(C(=C2CCN(CCc3c(C)nc4sccn4c3=O)CC2)c2ccc(F)cc2)c1` [Compound 14] was 1.33 pM; that for `Cc1nc2scc(C)n2c(=O)c1CCN1CCC(=C(c2ccccc2)c2cccc(C(F)(F)F)c2)CC1` [Compound 85] was below 4.77 pM; that for `Cc1nc2n(c(=O)c1CCN1CCC(=C(c3ccc(F)cc3)c3cccc(C(F)(F)F)c3)CC1)CCS2` [Compound 118] was 2.36 pM.

(Values after patent US4533665A, “[[Bis(aryl)methylene]-1-piperidinyl]alkyl-pyrimidinones” (Janssen Pharmaceutica, priority 1984, dated 1985).)
